Measurements reported in patent US10172875B2, “Therapeutic combinations comprising anti-FOLR1 immunoconjugates” (ImmunoGen, Inc., priority 2015, dated 2019).
Where two headings read alike, the source gives them in different places.

Assays:
[1] = system: ST088 human epithelial ovarian cancer patient derived tumor xenografts; assay: Antitumor activity of IMGN853, PLD and combination in ST088 tumor model (Example 1); format: in vivo, SCID mice
Protocol: Tumor volumes were measured twice weekly in three dimensions using a caliper. […] FIG. 1 depicts the results.

[2] = system: OV90 serous ovarian tumor xenografts; assay: Antitumor activity of IMGN853 (2.5 mg/kg), bevacizumab and combination in OV90 tumor model (Example 3); format: in vivo, SCID mice; details: IMGN853 2.5 mg/kg 1× and/or bevacizumab 5 mg/kg 1×
Text: FIG. 2B depicts the results.

[3] = system: platinum-resistant ovarian cancer PDXs; assay: IMGN853 with bevacizumab in platinum-resistant ovarian cancer PDX, 102-day study (FIG. 11B); format: in vivo, mice; details: IMGN853 5 mg/kg QWx2, bevacizumab 5 mg/kg QWx2, alone or combined
Text: Tumor growth was monitored out to 102 days. * P=0.011; ** P=0.018; ns, not significant (Wilcoxon test, non-adjusted).

[4] = system: OV90 serous ovarian tumor xenografts; assay: Antitumor activity of IMGN853 (1.25 mg/kg), paclitaxel, bevacizumab and combinations in OV90 tumor model (Example 4); format: in vivo, SCID mice; details: single doses: IMGN853 1.25 mg/kg, paclitaxel 10 mg/kg, bevacizumab 5 mg/kg
Protocol: Mice were randomized into groups (n=8 per group) by tumor volume and subsequently dosed on Day 14 post-inoculation. All treatments consisted of single doses (1×).
Tumor volumes were measured one to two times weekly in three dimensions using a caliper. […] Body weights were measured twice per week as an index of toxicity.

[5] = system: IGROV-1 ovarian tumor xenografts; assay: Antitumor activity of IMGN853, bevacizumab and combination in IGROV-1 tumor model (Example 5); format: in vivo, SCID mice; details: IMGN853 5 mg/kg 1× and/or bevacizumab 5 mg/kg 1×
Text: All treatments consisted of single doses (1×).
FIG. 4 depicts the results.

[6] = system: OV90 serous ovarian tumor xenografts; assay: Antitumor activity of IMGN853, cediranib and combination in OV90 tumor model (Example 9); format: in vivo, SCID mice; details: IMGN853 2.5 mg/kg 1× and/or cediranib 1.5 mg/kg qd×5
Text: The term “respond favorably” generally refers to causing a beneficial state in a subject. With respect to cancer treatment, the term refers to providing a therapeutic effect on the subject. Positive therapeutic effects in cancer can be measured in a number of ways (See, W. A. Weber, J. Nucl. Med. 50:1S-10S (2009)). For example, tumor growth inhibition, molecular marker expression, serum marker expression, and molecular imaging techniques can all be used to assess therapeutic efficacy of an anti-cancer therapeutic. Log10 Cell Kill (LCK) can be used to quantify the tumor cell kill. Log10 cell kill (LCK) is calculated with the formula LCK=(T−C)/Td×3.32, where (T−C) (or tumor growth delay (TGD)) is the median time (in days) for the treatment group and control group tumors to reach a predetermined size (tumor-free survivors excluded). Td is the tumor doubling time (estimated from nonlinear exponential curve fit of daily median of control tumor growth), and 3.32 is the number of cell doublings per log of cell growth. The ability to reduce tumor volume may be assessed, for example, by measuring a % T/C value, which is the median tumor volume of treated subjects divided by the median tumor volume of the control subjects. With respect to tumor growth inhibition, according to NCI standards, a T/C≤42% is the minimum level of anti-tumor activity. A T/C<10% is considered a high anti-tumor activity level, with T/C (%)=Median tumor volume of the treated/Median tumor volume of the control×100. A favorable response can be assessed, for example, by increased progression-free survival (PFS), disease-free survival (DFS), or overall survival (OS), complete response (CR), partial response (PR), or, in some cases, stable disease (SD), a decrease in progressive disease (PD), a […] time to progression (TTP), a decrease in CA125 in the case of ovarian cancer, or any combination thereof.

IGROV-1 cells = assay: Cell cycle analysis, IMGN853 and carboplatin (FIG. 9B); format: cell-based; details: carboplatin 20 μM, IMGN853 8 nM, alone or combined, 6 hours, then 24 hour drug-free medium
Protocol: Cells were washed, and cell cycle distribution determined following 24 hour culture in drug-free medium.

γH2AX = γH2AX immunoblot of cellular extracts, IMGN853 and carboplatin (FIG. 9C); format: cell-based; details: carboplatin 40 μM, IMGN853 16 nM, alone or combined, 6 hours, then 18 hours drug-free medium
Text: Cellular extracts were immunoblotted for γH2AX or actin (loading control) as indicated.

[7] = system: platinum-resistant ovarian cancer PDXs; assay: IMGN853 and PLD in platinum-resistant EOC PDX model (FIG. 10C, 10D); format: in vivo, SCID mice; details: QWx2: IMGN853 5 mg/kg or PLD 4 mg/kg; day 49
Protocol: Data are expressed as mean and SEM for each time point.
Mean values are plotted against vehicle controls.
To extend the in vitro observations, the combination of IMGN853 and PLD was examined in a platinum-resistant EOC PDX model (FIG. 10C). Vehicle-treated animals progressed quickly and were removed from study when tumors reached volumes between 1500-2000 mm^3. QWx2 dosing of IMGN853 (5 mg/kg) inhibited tumor growth by 81% on day 49, and a similar degree of inhibition (83%) was seen when PLD (4 mg/kg) was administered on the same schedule.

OV-90 xenografts = assay: OV-90 tumors harvested 4 days post-dosing: histology, γH2AX, CD31, anti-maytansine (FIGS. 12A-12C); format: in vivo, mice; details: IMGN853 2.5 mg/kg and/or bevacizumab 5 mg/kg
Protocol: Original magnification, 4×; scale bars, 2 mm (for Combination panel, 600 μm).
For each group, representative micrographs from one of three tumors are shown. Original magnification, 20×; scale bars, 200 μm.
Next, as a pharmacodynamic readout, tumor γH2AX levels were measured by immunoblotting (FIG. 12B).
While genotoxic insults are the primary inducers of γH2AX, accumulation of this protein can also occur in response to hypoxia. […] In order to examine treatment-related effects on microvessels, immunohistochemical staining with the endothelial cell marker CD31 was performed (FIG. 12C, upper panel).

[8] = system: OV90 serous ovarian tumor xenografts; details: IMGN853 5 mg/kg 1× and/or bevacizumab 5 mg/kg 1×
Protocol: Mice were randomized into groups (n=6 per group) by tumor volume and subsequently dosed on Day 14 post-inoculation.
Tumor volumes were measured one to two times weekly in three dimensions using a caliper. The tumor volume was expressed in mm^3 using the formula V=Length×Width×Height×½ (Tomayko and Reynolds, Cancer Chemother. Pharmacol. 24:148-54 (1989)) Body weights were measured twice per week as an index of toxicity. Activity was assessed as described in Bissery et al. (1991).

[9] = system: H2110 non-small cell lung cancer (NSCLC) tumor xenografts; details: for CR / PR: responders/animals
Protocol: Mice were randomized into groups (n=6-10 per group) by tumor volume and subsequently dosed on Day 7 post-inoculation. All treatments consisted of single doses (1×).
Tumor volumes were measured one to two times weekly in three dimensions using a caliper. The tumor volume was expressed in mm^3 using the formula V=Length×Width×Height×½ (Tomayko 1989). Body weights were measured twice per week as an index of test agent toxicity. Activity was assessed as described in Bissery et al. (1991).

[10] = IMGN853 5 mg/kg QWx2 and/or PLD 4 mg/kg QWx2
[11] = IMGN853 5 mg/kg QWx2 and/or PLD 4 mg/kg QWx2, responders/animals
[12] = IMGN853 1.5 mg/kg 1×, alone or with bevacizumab 5 mg/kg 1×
[13] = IMGN853 3 mg/kg 1× and/or bevacizumab 5 mg/kg 1×

IMGN853
tolerability / body weight ([1]; IMGN853 5 mg/kg QWx2): well tolerated with no notable body weight loss observed | T/C [1, 10]: 31% | antitumor activity rating [1, 10]: active | complete responses (CR) [1, 11]: 0/8 | partial responses (PR) [1, 11]: 0/8 | T/C [2]: 36% | TFS [2]: 0/6 | antitumor activity rating [2]: active | CR ([2]; responders/animals): 0/6 | antitumor effect [3]: moderate activity | TFS [4]: 0/7 | antitumor activity rating [4]: active | T/C ([4]; alone or combined): 37% | CR ([4]; responders/animals): 0/7 | T/C [5]: 20% | TFS [5]: 0/4 | antitumor activity rating [5]: active | CR ([5]; responders/animals): 0/4 | T/C [6]: 31% | antitumor activity rating [6]: active | LCK ([6]; Log10 cell kill): 0.5 | PR ([6]; responders/animals): 0/6 | T−C ([6]; tumor growth delay): 13 days | cell cycle distribution (IGROV-1 cells): enrichment of cells in G2/M | γH2AX expression (γH2AX): induced γH2AX expression in IGROV-1 cells and to levels higher than those seen following carboplatin exposure alone | tumor growth inhibition [7]: 81% | tumor γH2AX levels by immunoblotting (OV-90 xenografts; 4 days post-dosing): robustly induced | tumor microvessels, CD31 immunohistochemical staining (OV-90 xenografts; day 4): numerous large vessels | T/C [8]: 36% | antitumor activity rating [8]: active | tumor free survivors (TFS) [8]: 0/5 | CR ([8]; responders/animals): 1/5 | T/C [9, 12]: 64% | TFS [9, 12]: 0/6 | antitumor activity rating [9, 12]: inactive | CR [9, 12]: 0/6 | PR [9, 12]: 1/6 | body weight loss ([9]; IMGN853 1.5 mg/kg monotherapy, Day 25 post-inoculation): 8% | T/C [9, 13]: 25% | TFS [9, 13]: 0/6 | antitumor activity rating [9, 13]: active | CR [9, 13]: 0/6 | PR [9, 13]: 2/6 | body weight loss ([9]; IMGN853 3 mg/kg monotherapy, Day 42 post-inoculation): 9%
